pEC50: −log10 of the molar value. Like-named read-outs stand apart in the source and are kept apart here. *1 amine or outer side, *2 acyl side, *3 side chain or, on linkers, in order; H or OH if unused. Where a SMILES comes first, the peptide text is derived from it. Side-chain parts run from the residue outwards. [ ]: non-standard residue; d: D form. The star is where a group is joined. C20 diacid = O=C(O)CCCCCCCCCCCCCCCCCCC(=O)*; γGlu = O=C(O)[C@H](CCC(=O)[*:2])N[*:1]; X48 = CC(C)[C@H](C(=O)*)c1ccc(Cl)cc1; X71 = COc1cc(F)cc(C(C)(C)C(=O)*)c1; X77 = CC(C(=O)*)c1cc(F)cc(F)c1; X26 = O=C(C1(c2ccccc2)CCCC1)*; AEEA = NCCOCCOCC(=O)O; Aib = CC(C)(N)C(=O)O; βAla = NCCC(=O)O
Assays:
Assay type in all cases: cell-based
GIP receptor [1] = biological target: T1, GIP receptor (Homo sapiens, UniProt P48546); assay: PathHunter β-arrestin assay, GIP receptor; design: host or cells: PathHunter CHO-K1 GIPR β-Arrestin Cell Line
T1 sequence (P48546 22-466): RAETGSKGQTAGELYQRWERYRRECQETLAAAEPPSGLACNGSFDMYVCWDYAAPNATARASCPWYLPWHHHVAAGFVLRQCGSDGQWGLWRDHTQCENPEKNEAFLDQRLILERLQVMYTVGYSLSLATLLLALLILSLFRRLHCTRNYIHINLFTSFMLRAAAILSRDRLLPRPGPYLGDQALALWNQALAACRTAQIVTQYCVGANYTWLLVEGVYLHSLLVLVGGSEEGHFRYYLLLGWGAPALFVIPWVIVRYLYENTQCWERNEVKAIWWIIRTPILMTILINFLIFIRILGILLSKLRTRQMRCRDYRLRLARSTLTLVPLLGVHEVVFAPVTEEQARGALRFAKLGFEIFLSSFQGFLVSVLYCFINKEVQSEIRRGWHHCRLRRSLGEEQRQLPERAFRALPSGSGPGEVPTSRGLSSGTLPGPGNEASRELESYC

GLP-1 receptor [2] = biological target: T2, GLP-1 receptor (Homo sapiens, UniProt P43220); assay: HitHunter cAMP assay, GLP-1 receptor; conditions: for Emax: read-out: Emax GLP-1R
GIP receptor [3] = biological target: T1, GIP receptor; assay: HitHunter cAMP assay, GIP receptor; conditions: for Emax: read-out: Emax GIP-1R
GLP-1 receptor [4] = biological target: T2, GLP-1 receptor; assay: PathHunter β-arrestin assay, GLP-1 receptor; design: host or cells: PathHunter CHO-K1 GLP1R β-Arrestin Cell Line
[5] = β-arrestin-2 recruitment, PathHunter CHO-K1 GIPR β-Arrestin Cell Line, 90 min at 37° C., normalized to GIP, read-out: GIPR β Arrestin EC50
[6] = CHO cells stably expressing human GLP-1 receptor, cAMP accumulation, 30 min, read-out: EC50 GLP-1R
[7] = CHO cells, cAMP, normalized to maximum signal from GLP-1 (high) and DMSO (low)
[8] = CHO cells stably expressing GIP receptor, cAMP accumulation, 30 min, read-out: EC50 GIP-1R
[9] = CHO cells, cAMP, normalized to maximum signal from GIP (high) and DMSO (low)
[10] = β-arrestin-2 recruitment, PathHunter CHO-K1 GLP1R β-Arrestin Cell Line, 90 min at 37° C., normalized to GLP-1, read-out: GLP-1R β Arrestin EC50

T2 sequence (P43220 24-463): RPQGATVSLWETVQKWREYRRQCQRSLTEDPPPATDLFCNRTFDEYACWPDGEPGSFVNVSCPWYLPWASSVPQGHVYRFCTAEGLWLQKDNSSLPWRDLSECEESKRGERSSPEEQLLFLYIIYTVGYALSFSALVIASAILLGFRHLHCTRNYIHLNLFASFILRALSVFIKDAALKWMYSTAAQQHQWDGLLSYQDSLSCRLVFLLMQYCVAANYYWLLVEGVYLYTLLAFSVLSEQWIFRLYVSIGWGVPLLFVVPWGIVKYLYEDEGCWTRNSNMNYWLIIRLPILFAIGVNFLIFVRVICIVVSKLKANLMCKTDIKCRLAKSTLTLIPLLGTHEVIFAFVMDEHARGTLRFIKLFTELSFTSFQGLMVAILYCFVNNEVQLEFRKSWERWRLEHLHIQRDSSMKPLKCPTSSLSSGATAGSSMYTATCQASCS

SMILES: CC[C@H](C)[C@H](NC(=O)[C@H](CC(C)C)NC(=O)[C@H](Cc1c[nH]c2ccccc12)NC(=O)[C@H](CCC(N)=O)NC(=O)[C@@H](NC(=O)[C@H](Cc1ccccc1)NC(=O)[C@H](C)NC(=O)[C@H](CCCCNC(=O)COCCOCCNC(=O)COCCOCCNC(=O)CC[C@H](NC(=O)CCCCCCCCCCCCCCCCCCC(=O)O)C(=O)O)NC(=O)[C@H](CCC(N)=O)NC(=O)[C@H](C)NC(=O)[C@@H](NC(=O)[C@H](CCCCN)NC(=O)[C@H](CC(=O)O)NC(=O)[C@H](CC(C)C)NC(=O)C(C)(C)NC(=O)[C@@H](NC(=O)[C@H](CO)NC(=O)[C@H](Cc1ccc(O)cc1)NC(=O)[C@H](CC(=O)O)NC(=O)[C@H](CO)NC(=O)[C@@H](NC(=O)[C@H](Cc1ccccc1)NC(=O)[C@@H](NC(=O)CNC(=O)[C@H](CCC(=O)O)NC(=O)CCNC(=O)C1(c2ccccc2)CCCC1)[C@@H](C)O)[C@@H](C)O)[C@@H](C)CC)[C@@H](C)CC)C(C)C)C(=O)N[C@@H](C)C(=O)NCC(=O)NCC(=O)N1CCC[C@H]1C(=O)N[C@@H](CO)C(=O)N[C@@H](CO)C(=O)NCC(=O)N[C@@H](C)C(=O)N1CCC[C@H]1C(=O)N1CCC[C@H]1C(=O)N1CCC[C@H]1C(=O)N[C@@H](CO)C(N)=O [Compound 236] ({X26-βAla}-EGTFTSDYSI[Aib]LDKIAQK([AEEA-AEEA-γGlu-C20 diacid])AFVQWLIAGGPSSGAPPPS-NH2)
- pEC50 (GIP receptor [1]; [5]): < 6.00
- pEC50 (GLP-1 receptor [2]; [6]): 9.00 to 10.00
- Emax (GLP-1 receptor [2]; [7]): 127%
- pEC50 (GIP receptor [3]; [8]): 8.00 to 9.00
- Emax (GIP receptor [3]; [9]): 114%
- pEC50 (GLP-1 receptor [4]; [10]): < 6.00

SMILES: CC[C@H](C)[C@H](NC(=O)[C@H](CC(C)C)NC(=O)[C@H](Cc1c[nH]c2ccccc12)NC(=O)[C@H](CCC(N)=O)NC(=O)[C@@H](NC(=O)[C@H](Cc1ccccc1)NC(=O)[C@H](C)NC(=O)[C@H](CCCCNC(=O)COCCOCCNC(=O)COCCOCCNC(=O)CC[C@H](NC(=O)CCCCCCCCCCCCCCCCCCC(=O)O)C(=O)O)NC(=O)[C@H](CCC(N)=O)NC(=O)[C@H](C)NC(=O)[C@@H](NC(=O)[C@H](CCCCN)NC(=O)[C@H](CC(=O)O)NC(=O)[C@H](CC(C)C)NC(=O)C(C)(C)NC(=O)[C@@H](NC(=O)[C@H](CO)NC(=O)[C@H](Cc1ccc(O)cc1)NC(=O)[C@H](CC(=O)O)NC(=O)[C@H](CO)NC(=O)[C@@H](NC(=O)[C@H](Cc1ccccc1)NC(=O)[C@@H](NC(=O)CNC(=O)[C@H](CCC(=O)O)NC(=O)CCNC(=O)C(C)c1cc(F)cc(F)c1)[C@@H](C)O)[C@@H](C)O)[C@@H](C)CC)[C@@H](C)CC)C(C)C)C(=O)N[C@@H](C)C(=O)NCC(=O)NCC(=O)N1CCC[C@H]1C(=O)N[C@@H](CO)C(=O)N[C@@H](CO)C(=O)NCC(=O)N[C@@H](C)C(=O)N1CCC[C@H]1C(=O)N1CCC[C@H]1C(=O)N1CCC[C@H]1C(=O)N[C@@H](CO)C(N)=O (stereo partly drawn) [Compound 216] ({X77-βAla}-EGTFTSDYSI[Aib]LDKIAQK([AEEA-AEEA-γGlu-C20 diacid])AFVQWLIAGGPSSGAPPPS-NH2)
- pEC50 (GIP receptor [1]; [5]): < 6.00
- pEC50 (GLP-1 receptor [2]; [6]): 9.00 to 10.00
- Emax (GLP-1 receptor [2]; [7]): 102%
- pEC50 (GIP receptor [3]; [8]): 7.00 to 8.00
- Emax (GIP receptor [3]; [9]): 93%
- pEC50 (GLP-1 receptor [4]; [10]): < 6.00

SMILES: CC[C@H](C)[C@H](NC(=O)[C@H](CC(C)C)NC(=O)[C@H](Cc1c[nH]c2ccccc12)NC(=O)[C@H](CCC(N)=O)NC(=O)[C@@H](NC(=O)[C@H](Cc1ccccc1)NC(=O)[C@H](C)NC(=O)[C@H](CCCCNC(=O)COCCOCCNC(=O)COCCOCCNC(=O)CC[C@H](NC(=O)CCCCCCCCCCCCCCCCCCC(=O)O)C(=O)O)NC(=O)[C@H](CCC(N)=O)NC(=O)[C@H](C)NC(=O)[C@@H](NC(=O)[C@H](CCCCN)NC(=O)[C@H](CC(=O)O)NC(=O)[C@H](CC(C)C)NC(=O)C(C)(C)NC(=O)[C@@H](NC(=O)[C@H](CO)NC(=O)[C@H](Cc1ccc(O)cc1)NC(=O)[C@H](CC(=O)O)NC(=O)[C@H](CO)NC(=O)[C@@H](NC(=O)[C@H](Cc1ccccc1)NC(=O)[C@@H](NC(=O)CNC(=O)[C@H](CCC(=O)O)NC(=O)CCNC(=O)C(C)(C)c1cc(F)cc(OC)c1)[C@@H](C)O)[C@@H](C)O)[C@@H](C)CC)[C@@H](C)CC)C(C)C)C(=O)N[C@@H](C)C(=O)NCC(=O)NCC(=O)N1CCC[C@H]1C(=O)N[C@@H](CO)C(=O)N[C@@H](CO)C(=O)NCC(=O)N[C@@H](C)C(=O)N1CCC[C@H]1C(=O)N1CCC[C@H]1C(=O)N1CCC[C@H]1C(=O)N[C@@H](CO)C(N)=O [Compound 118] ({X71-βAla}-EGTFTSDYSI[Aib]LDKIAQK([AEEA-AEEA-γGlu-C20 diacid])AFVQWLIAGGPSSGAPPPS-NH2)
- pEC50 (GIP receptor [1]; [5]): < 6.00
- pEC50 (GLP-1 receptor [2]; [6]): 8.00 to 9.00
- Emax (GLP-1 receptor [2]; [7]): 103%
- pEC50 (GIP receptor [3]; [8]): 7.00 to 8.00
- Emax (GIP receptor [3]; [9]): 105%
- pEC50 (GLP-1 receptor [4]; [10]): < 6.00

SMILES: CC[C@H](C)[C@H](NC(=O)[C@H](CC(C)C)NC(=O)[C@H](Cc1c[nH]c2ccccc12)NC(=O)[C@H](CCC(N)=O)NC(=O)[C@@H](NC(=O)[C@H](Cc1ccccc1)NC(=O)[C@H](C)NC(=O)[C@H](CCCCNC(=O)COCCOCCNC(=O)COCCOCCNC(=O)CC[C@H](NC(=O)CCCCCCCCCCCCCCCCCCC(=O)O)C(=O)O)NC(=O)[C@H](CCC(N)=O)NC(=O)[C@H](C)NC(=O)[C@@H](NC(=O)[C@H](CCCCN)NC(=O)[C@H](CC(=O)O)NC(=O)[C@H](CC(C)C)NC(=O)C(C)(C)NC(=O)[C@@H](NC(=O)[C@H](CO)NC(=O)[C@H](Cc1ccc(O)cc1)NC(=O)[C@H](CC(=O)O)NC(=O)[C@H](CO)NC(=O)[C@@H](NC(=O)[C@H](Cc1ccccc1)NC(=O)[C@@H](NC(=O)CNC(=O)[C@H](CCC(=O)O)NC(=O)CCNC(=O)[C@H](c1ccc(Cl)cc1)C(C)C)[C@@H](C)O)[C@@H](C)O)[C@@H](C)CC)[C@@H](C)CC)C(C)C)C(=O)N[C@@H](C)C(=O)NCC(=O)NCC(=O)N1CCC[C@H]1C(=O)N[C@@H](CO)C(=O)N[C@@H](CO)C(=O)NCC(=O)N[C@@H](C)C(=O)N1CCC[C@H]1C(=O)N1CCC[C@H]1C(=O)N1CCC[C@H]1C(=O)N[C@@H](CO)C(N)=O [Compound 177] ({X48-βAla}-EGTFTSDYSI[Aib]LDKIAQK([AEEA-AEEA-γGlu-C20 diacid])AFVQWLIAGGPSSGAPPPS-NH2)
- pEC50 (GIP receptor [1]): < 6.00
- pEC50 (GLP-1 receptor [2]): 8.00 to 9.00
- Emax (GLP-1 receptor [2]; CHO): 95%
- pEC50 (GIP receptor [3]): 7.00 to 8.00
- Emax (GIP receptor [3]; CHO): 94%
- pEC50 (GLP-1 receptor [4]): < 6.00

SMILES: CC[C@H](C)[C@H](NC(=O)[C@H](CO)NC(=O)[C@H](Cc1ccc(O)cc1)NC(=O)[C@H](CC(=O)O)NC(=O)[C@H](CO)NC(=O)[C@@H](NC(=O)[C@H](Cc1ccccc1)NC(=O)[C@@H](NC(=O)CNC(=O)[C@H](CCC(=O)O)NC(=O)CCNC(=O)C1(c2ccc(Cl)cc2)CCCC1)[C@@H](C)O)[C@@H](C)O)C(=O)N[C@@H](Cc1ccc(O)cc1)C(=O)N[C@@H](CC(C)C)C(=O)N[C@@H](CC(=O)O)C(=O)N[C@@H](CCCCN)C(=O)N[C@@H](CCC(N)=O)C(=O)N[C@@H](C)C(=O)N[C@@H](C)C(=O)NC(C)(C)C(=O)N[C@@H](CCC(=O)O)C(=O)N[C@@H](Cc1ccccc1)C(=O)N[C@H](C(=O)N[C@@H](CC(N)=O)C(=O)N[C@@H](Cc1c[nH]c2ccccc12)C(=O)N[C@@H](CC(C)C)C(=O)N[C@@H](CC(C)C)C(=O)N[C@@H](C)C(=O)NCC(=O)NCC(=O)N1CCC[C@H]1C(=O)N[C@@H](CO)C(=O)N[C@@H](CO)C(=O)NCC(=O)N[C@@H](C)C(=O)N1CCC[C@H]1C(=O)N1CCC[C@H]1C(=O)N1CCC[C@H]1C(=O)N[C@@H](CO)C(=O)N[C@@H](CCCCNC(=O)COCCOCCNC(=O)COCCOCCNC(=O)CC[C@H](NC(=O)CCCCCCCCCCCCCCCCCCC(=O)O)C(=O)O)C(N)=O)C(C)C [Compound 155]
- pEC50 (GIP receptor [1]; [5]): < 6.00
- pEC50 (GLP-1 receptor [2]; [6]): 8.00 to 9.00
- Emax (GLP-1 receptor [2]; [7]): 101%
- pEC50 (GIP receptor [3]; [8]): 7.00 to 8.00
- Emax (GIP receptor [3]; [9]): 104%
- pEC50 (GLP-1 receptor [4]; [10]): < 6.00

— patent publication US12281149B2, “Modulators of G-protein coupled receptors” (priority 2021, dated 2025)
